Reference: PMC3566091, “Binding of the Radioligand SIL23 to α-Synuclein Fibrils in Parkinson Disease Brain Tissue Establishes Feasibility and Screening Approaches for Developing a Parkinson Disease Imaging Agent” (PLoS ONE, 2013)
Where two headings read alike, the source gives them in different places. Values belong to the compound of their own block, whether it stands above or below them.

Assays:
[1] = molecular target: T1, recombinant α-syn fibrils (Homo sapiens, UniProt P37840); assay: biochemical
[2] = molecular target: T2, Human PD brain homogenate (insoluble fraction) (Homo sapiens, UniProt P37840); assay: biochemical
synthetic Aβ1–42 fibrils [3] = molecular target: T3, synthetic Aβ1–42 fibrils (Homo sapiens, UniProt P05067); assay: biochemical
[4] = tested on: insoluble fractions from control human brain tissue; assay: [125I]SIL23 saturation binding to insoluble fractions of control brain tissue; settings: four control cases, listed as [^125I]SIL23
Protocol: Brain tissue samples were selected from an autopsy case series of patients evaluated for parkinsonism by movement disorders specialists at the Movement Disorders Center of Washington University School of Medicine in St. Louis. The clinical diagnosis of idiopathic PD was based on modified United Kingdom Parkinson’s Disease Society Brain Bank clinical diagnostic criteria with clear clinical response to levodopa. Dementia was determined by a movement disorders specialist based on clinical assessment of cognitive dysfunction sufficiently severe to impair activities of daily living, with further evaluation of cognitive impairment using the AD8 [20] and Mini-Mental Status Exam (MMSE). LB stage was assessed at autopsy using a PD staging scale (range: 0, 1–6). PD cases were selected based on a clinical diagnosis of PD plus dementia, Braak LB stage 5–6 pathology, and the absence of significant Aβ or tau pathology determined by immunohistochemistry. Control cases were selected based on the absence of α-syn, Aβ and tau pathology. Samples were used from both male and female subjects.
(§1) All data points were performed in triplicate.

[5] = tested on: crude PBS homogenate from control human brain; assay: [125I]SIL23 saturation binding to crude control brain homogenate; settings: unfractionated PBS homogenate
Protocol: as §1

synthetic Aβ1–42 fibrils [6] = molecular target: T3, synthetic Aβ1–42 fibrils
recombinant tau fibrils [7] = molecular target: T4, recombinant tau fibrils (Homo sapiens, UniProt P10636)
recombinant tau fibrils [8] = molecular target: T4, recombinant tau fibrils; assay: biochemical
Aβ plaques in AD brain [9] = tested on: Aβ plaques in AD brain; set-up: method as in PMID 16291932; settings: cited from earlier work
Aβ plaques in AD brain [10] = settings: cited from earlier work
[11] = molecular target: T1, recombinant α-syn fibrils; settings: read-out: Ki, α-Syn fibrils; 200 nM [125I]SIL23, 1 µM fibrils; Ki from EC50; 95% confidence interval in parentheses
[12] = molecular target: T2, Human PD brain homogenate (insoluble fraction); settings: read-out: Ki, Human PD brain homogenate; 200 nM [125I]SIL23, 10 µg insoluble fraction/150 µl; 95% confidence interval in parentheses
PD tissue = tested on: PD tissue; set-up: method as in PMID 19576880; settings: cited from earlier work

T4 sequence (P10636 560-692): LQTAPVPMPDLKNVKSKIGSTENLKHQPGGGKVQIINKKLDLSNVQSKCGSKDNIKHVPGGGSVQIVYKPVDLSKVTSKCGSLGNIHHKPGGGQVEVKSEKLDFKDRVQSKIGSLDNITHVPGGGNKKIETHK
T3 sequence (P05067 672-713 limits assumed): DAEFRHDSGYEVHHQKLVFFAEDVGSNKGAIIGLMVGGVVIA

SMILES: O=C(O)c1cc(/N=N/c2ccc(-c3ccc(/N=N/c4ccc(O)c(C(=O)O)c4)cc3)cc2)ccc1O [Chrysamine G]
Ki [1]: 432 nM
Ki [2]: 367 nM

SMILES: O=[N+]([O-])c1ccc2c(c1)Sc1cc(OC/C=C/I)ccc1N2 [SIL23]
[125I]SIL23 binding in control cases [4]: no significant [^125I]SIL23 binding
[125I]SIL23 binding in crude homogenate of a control case [5]: no significant binding
[125I]SIL23 binding in crude homogenate of a control case ([5]; listed as [^125I]SIL23): No significant specific binding
Bmax of [125I]SIL23 binding to Aβ1–42 fibrils (synthetic Aβ1–42 fibrils [6]): 23.7 pmol/nmol
Bmax of [125I]SIL23 binding to tau fibrils (recombinant tau fibrils [7]): 4.57 pmol/nmol

SMILES: CNc1ccc(-c2nc3ccc(O)cc3s2)cc1 [PiB, Pittsburgh Compound B]
average Bmax (binding site density) for PiB binding in AD brain (Aβ plaques in AD brain [9]; AD brain): 1407 pmol/g wet weight
Kd (Aβ plaques in AD brain [9]; read-out: Kd for PiB binding to Aβ plaques): 2.5 nM
Ki [1]: 116 nM
Ki [2]: 99.2 nM

SMILES: CNc1ccc(/C=C/c2ccc(OCCOCCOCCF)nc2)cc1 [AV-45]
average Bmax (binding site density) for AV-45 binding in AD brain (Aβ plaques in AD brain [10]; AD brain): 8.8 pmol/mg protein
Kd (Aβ plaques in AD brain [10]; read-out: Kd for AV-45 binding to Aβ plaques): 3.7 nM

SMILES: CN(C)c1ncc(/C=C/c2nc3ccc(OCCF)cc3o2)s1 [BF227]
Ki [11]: 39.7 nM
Ki [12]: 138 nM
radiolabeled BF227 binding in PD tissue (PD tissue): not detectable

Second part, the compound after the results:

Ki (synthetic Aβ1–42 fibrils [3]): 110 nM
SMILES: COc1ccc2c(c1)Sc1cc([N+](=O)[O-])ccc1N2 [SIL5]

Ki (synthetic Aβ1–42 fibrils [3]): 102 nM
Ki (recombinant tau fibrils [8]): 173 nM
SMILES: O=[N+]([O-])c1ccc2c(c1)Sc1cc(Br)ccc1N2 [SIL22]

Ki (synthetic Aβ1–42 fibrils [3]): 71.5 nM
Ki (recombinant tau fibrils [8]): 52.3 nM
SMILES: O=[N+]([O-])c1ccc2c(c1)Sc1ccccc1N2 [SIL3B]
